Series [1] relates to 3D human liver microtissues (hLiMT). Put plainly: miR-122 levels in hLiMT supernatant (qRT-PCR). It counts as cell-based. As to conditions: 5 days exposure. As for the experimental part:
miRNA extraction miRNA was extracted using a miRNeasy kit, following the manufacturer's instructions, and as described by Starkey et al. 2016 with minor modifications. Thirty-eight µL thawed hLiMT supernatant was mixed with 162 µL nuclease-free water and 700 µL QIAzol reagent and then incubated for 5 min at room temperature. Chloroform (100 µL) was added, the samples shaken vigorously for 15 sec and then centrifuged at 12,000 g for 15 min at 4 °C. The supernatant was then mixed with 500 µL 70% ethanol and transferred to a miRNeasy minispin column. The column was centrifuged at >8000 g for 15 sec. The elute was then purified using a MinElute kit
miRNA purification The small RNA elution mixture was applied to the MinElute column 700 µL at a time. […]
qRT-PCR One µl thawed cDNA was mixed with 19 µl miR-122 or cel-lin4 PCR reaction master mix containing 1 µL Taqman^TM miR-122 or cel-lin4 primer small RNA assay (20X), 10 µl Taqman^TM universal PCR master mix II (2X) and 8 µL nuclease free water. Levels of miRNA were measured by the fluorescent signal produced from the Taqman probes on an ABI Prism 7000 (Applied Biosystems). miRNA levels were normalized to levels of cel-lin4 miRNA. Relative miRNA production was determined with the ΔCt method and reported as 2−ΔCt, where Ct is the threshold cycle. Differences in miRNA concentration were expressed as fold changes relative to control.
On the technique in general: Quantitative PCR measures a nucleic acid by following its amplification.

For series [2] the following is noted: ref Chen et al 2016 / Chen et al 2011; cited from earlier work.
Series [3] relates to 3D human liver microtissues (hLiMT). Kind of series: HMGB1 levels in hLiMT supernatant (ELISA). It is filed as cell-based. To be noted: 5 days exposure. As for the experimental part:
Supernatants from single hLiMT (in triplicates) were analysed for HMGB1 content using IBLs ELISA assay using the high sensitive range test procedure. Briefly, 50 μL of the thawed cell-culture supernatants from single microtissues or diluted standards were incubated in the microtiter plate along with 50 μL of the diluent buffer for 20-24 h at 37 °C in the dark. The plate was then washed 5 times with 400 µL diluted wash buffer (1:5), blotted dry and 100 µL enzyme conjugate added. After incubation in the dark for 2 h at 25 °C the plate was washed 5 times with 400 µL diluted wash buffer, blotted dry and then 100 µL colour solution added. The plate was incubated for a further 30 min at room temperature prior to the addition of 100 µL stop solution. The absorbance was then determined at 450 nm using an EnVision® plate reader (PerkinElmer, Waltham, MA, USA) within 60 min. The concentration of HMGB1 in the samples was read off the high sensitivity range standard curve obtained from plotting the OD of the standards against the concentration (ng/L).
A general note: In an ELISA, binding on a coated surface is turned into a signal by an enzyme label.

For series [4] the following is noted: cited from earlier work; for DILI category: clinical, from literature and product labels.
For series [5], the system named is 3D human liver microtissues (hLiMT). Kind of series: alpha-GST release into hLiMT supernatant (ELISA). It is filed as cell-based. As to conditions: 336 h, 14 days, release into medium, read-out: IC50 (α-GST assay).
Protocol: Supernatants from single hLiMT (in triplicates) were analysed for α-GST content using EKF’s α-GST ELISA assay. Briefly, 50 μL of the thawed cell-culture supernatants from single microtissues was transferred into a new v-bottom plate and diluted with 60 μl sample diluent buffer. From this dilution, 100 μL were transferred to the microassay strips. The ELISA was otherwise performed according to the manufacturer’s instructions.
The subject of series [6] is primary human hepatocytes (PHH). Kind of series: Cytotoxicity (cellular ATP, CellTiter-Glo) in 2D plated primary human hepatocytes, 48 h treatment.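 Further: 384-well plates, luminescence read-out, normalized to vehicle wells with 1% DMSO.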 It counts as cell-based. As to conditions: Hepatocyte; 2D primary human hepatocytes (lot IZT), 48 h treatment, total cellular ATP content; read-out: Geomean IC50. Background: In ATP-based viability assays light output follows the ATP content of the culture.
Protocol: Cryopreserved PHH (lot IZT) were thawed in InVitroGro HT™ thawing media at 37 °C, pelleted, and resuspended. Viable hepatocytes were counted by Trypan blue exclusion and plated in black-walled, BioCoat™ collagen 384-well plates at 13,000 cells/well in InVitroGro CP™ plating media supplemented with 1% Torpedo™ Antibiotic Mix and 5% fetal bovine serum and incubated overnight for 18 h. Cells were then treated with compounds for 48 h diluted in InVitroGro HI™ incubation media containing 1% Torpedo Antibiotic Mix, 10% fetal bovine serum, and 1% DMSO. […] Luminescence was determined on an EnVision™ Muliplate Reader (PerkinElmer, Waltham, MA, USA), and data were normalized to vehicle (1% DMSO) control wells.

Series [7] relates to 3D human liver microtissues (hLiMT). Kind of series: Cytotoxicity (cellular ATP) in 3D human liver microtissues, 5-6 days treatment.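 Further: Hanging-drop spheroids, seven-point dilution series, re-dosed on day 3, CellTiter-Glo 2.0 luminescence, normalized to 0.5 or 1% DMSO vehicle controls on the same plate.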 It is filed as cell-based. To be noted: Homo sapiens; hLiMT, 5/6 days, ATP content; read-out: IC50 SHORT.
Series [8] has the same test system. Put plainly: Cytotoxicity (cellular ATP, CellTiter-Glo 2.0) in 3D human liver microtissues, 14 day repeat-dose treatment. To be noted: Homo sapiens, 336 h.
The conditions of series [9]: cited from earlier work.
On the set-up of series [10]: method as in Russmann et al. [2005]. To be noted: patients; ref Russmann et al. [2005]; cited from earlier work.
[11] abbreviates: Table 1, ref Garside et al. (2014).
Where [12] appears, read: clinical DILI severity category, 1-5.
The mark [13] stands for this setting: table S-4, ref Garside et al. 2014.
Setting [14] is: Hepatocyte, read-out: Geomean IC50 [µM].
The mark [15] stands for this setting: human Cmax total, used for IC50/Cmax.
[16] abbreviates: human total plasma Cmax, ref literature values.

Read-outs that look alike come from different tables or passages of the source. Bounds are passed on as bounds.

In the case of `CN(C)CCCN1c2ccccc2Sc2ccc(Cl)cc21` [Chlorpromazine], in series [1], the “release of miR-122” value is “dose-dependent release”. In addition, the “FDA DILI Classification DILI severity score” value in series [2] is listed as 2. Further, the “LTKB DILI classification” value in series [2] is “less DILI concern”. The “release of HMGB1” value in [3] is recorded as “dose-dependent release”. In addition, the DILI severity category is 3: Low clinical DILI concern (N = 23) in series [4] (setting [11]); 3. Low Clinical DILI Concern in series [4] (setting [12]); 3 in [4] (setting [13]); 3. Low Clinical DILI Concern in series [4] (table S-5, ref Garside et al. 2014). Also, the DILI category in [4] (ref Garside et al. 2014) is reported as 3. Low Clinical DILI Concern. For the same compound, the 50% inhibitory concentration (IC50) (commonly the concentration at which inhibition is half-maximal) in [5] was 45.4 µM; in [6], 19.2 µM; in series [7], 10.9 µM; in series [8] (read-out: IC50 (ATP-assay)) it was 7 µM; in series [8] (read-out: IC50 LONG), 7.1 µM; in [8] (setting [14]), approximately 7.4 µM. Further, the Cmax in series [9] (setting [15]) and in series [9] (setting [16]) was 940 nM throughout.

Take `CC(C)c1nc(N(C)S(C)(=O)=O)nc(-c2ccc(F)cc2)c1/C=C/[C@@H](O)C[C@@H](O)CC(=O)O` [Rosuvastatin]: the “FDA DILI Classification DILI severity score” value in series [2] is listed as 3. Besides, the “LTKB DILI classification” value in series [2] is listed as “less DILI concern”. Moreover, the DILI severity category is 3: Low clinical DILI concern (N = 23) in series [4] (setting [11]), 3. Low Clinical DILI Concern in series [4] (setting [12]) and 3 in series [4] (setting [13]). The DILI category in series [4] (ref Garside et al. 2014) is given as 3. Low Clinical DILI Concern. The values for the IC50 in [6], in series [7] and in [8] (setting [14]) were more than 100 µM, 34.2 µM and 7.8 µM, respectively. For the same compound, in series [10], the “mild, transient elevations of plasma enzyme levels” value was 1–3%. The maximum concentration (Cmax) in [9] (setting [15]) and in series [9] (setting [16]) was 10 nM in each case.
